Experiments:
[1] = tested on: adenosine kinase; settings: literature; cited from earlier work
[2] = target: adenosine kinase (Homo sapiens, UniProt P55263); experiment: In vitro inhibition of adenosine kinase activity; assay type: biochemical
Source text: The adenosine kinase to be inhibited can be located in vitro, in situ or in vivo. Where the adenosine kinase is located in vitro, adenosine kinase is contacted with the inhibitor compound, typically by adding the compound to an aqueous solution containing the enzyme, radiolabeled substrate adenosine, magnesium chloride and ATP. The enzyme can exist in intact cells or in isolated subcellular fractions containing the enzyme. The enzyme is then maintained in the presence of the inhibitor for a period of time and under suitable physiological conditions. Means for determining maintained times are well known in the art and depend inter alia on the concentrations of enzyme and the physiological conditions. Suitable physiological conditions are those necessary to maintain adenosine kinase viability and include temperature, acidity, tonicity and the like. Inhibition of adenosine kinase can be performed, by example, according to standard procedures well known in the art (Yamada et at., Comp. Biochem. Physiol. 1982, 71B: 367-372).
In vitro adenosine kinase activity can be measured using any of the standard procedures well known in the art. By way of example, cells containing adenosine kinase, such as IMR-32 human neuroblastoma cells, are cultured in the presence and absence of an inhibitor. Inhibition is measured as the ability to inhibit phosphorylation of endogenous or externally applied ^14 C-adenosine by these cells. The cells can be intact or broken. The specificity of adenosine kinase inhibitory activity is determined by studying the effects of inhibitors on adenosine A1 and A2a receptor binding, adenosine deaminase activity and adenosine transport.
Numerous inhibitor compounds of the present invention were tested in vitro and found to inhibit adenosine kinase activity. The results of some representative studies are shown below in Tables 1 and 2.

Chain of adenosine kinase (Homo sapiens, UniProt P55263) (P55263 whole entry, species assumed): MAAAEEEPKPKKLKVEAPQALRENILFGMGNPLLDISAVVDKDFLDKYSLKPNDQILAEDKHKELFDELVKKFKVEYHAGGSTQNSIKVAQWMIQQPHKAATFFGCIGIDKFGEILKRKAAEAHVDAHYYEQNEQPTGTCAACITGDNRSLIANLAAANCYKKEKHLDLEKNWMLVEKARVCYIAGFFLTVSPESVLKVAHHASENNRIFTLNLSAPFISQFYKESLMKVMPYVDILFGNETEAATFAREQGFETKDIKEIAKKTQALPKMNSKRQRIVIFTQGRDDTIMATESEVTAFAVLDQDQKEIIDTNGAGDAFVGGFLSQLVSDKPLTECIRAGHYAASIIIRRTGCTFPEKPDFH

Row | IC50 ([2]; Table 2, in vitro) | SMILES | further results
1 | > 10000 nM | CC(=O)N[C@H]1C[C@@H](n2cc(I)c3c(Cl)ncnc32)[C@H](OC(C)=O)[C@@H]1OC(C)=O [drawing 17 (R5=Cl)] | 
2 | 110 nM | O=C(N[C@H]1C[C@@H](n2cc(I)c3c(Cl)ncnc32)[C@H](O)[C@@H]1O)C(F)(F)F [drawing 18 (R5=Cl, R=CF3CO), N7-((1'R,2'S,3'R,4'S)-2',3'-dihydroxy-4'-(trifluoroacetyl)amino-cyclopentyl)-4-chloro-5-iodo-pyrrolopyrimidine] | 
3 | 350 nM | CC(=O)N[C@H]1C[C@@H](n2cc(I)c3c(Cl)ncnc32)[C@H](O)[C@@H]1O [drawing 18 (R5=Cl, R=CH3CO), N7-((1'R,2'S,3'R,4'S)-2',3'-dihydroxy-4'-(acetyl)amino-cyclopentyl)-4-chloro-5-iodo-pyrrolopyrimidine] | 
4 | 160 nM | CC(=O)N[C@H]1C[C@@H](n2cc(I)c3c(N)ncnc32)[C@H](O)[C@@H]1O [drawing 18 (R5=NH2, R=CH3CO), N7-((1'R,2'S,3'R,4'S)-2',3'-dihydroxy-4'-(acetyl)amino-cyclopentyl)-4-amino-5-iodo-pyrrolopyrimidine] | 
5 | 200 nM | O=C(N[C@H]1C[C@@H](n2cc(I)c3c(O)ncnc32)[C@H](O)[C@@H]1O)C(F)(F)F [drawing 18 (R5=OH, R=CF3CO), N7-((1'R,2'S,3'R,4'S)-2',3'-dihydroxy-4'-(trifluoroacetyl)amino-cyclopentyl)-4-hydroxy-5-iodo-pyrrolopyrimidine] | 
6 | 6300 nM | CC(=O)N[C@H]1C[C@@H](n2cc(I)c3c(Cl)ncnc32)[C@@H]2OC(=O)O[C@@H]21 [drawing 21 (R=CH3CO, R5=Cl), N7-((1'R,2'S,3'R,4'S)-2',3'--O-(2"-oxo-1",3"-dioxalyl)-4'-(acetyl)amino-cyclopentyl)-4-chloro-5-iodo-pyrrolopyrimidine] | 
7 | 4000 nM | CC(=O)N[C@H]1C[C@@H](n2cc(I)c3c(O)ncnc32)[C@@H]2OC(=O)O[C@@H]21 [drawing 21 (R=CH3CO, R5=OH), N7-((1'R,2'S,3'R,4'S)-2',3'--O-(2"-oxo-1",3"-dioxalyl)-4'-(acetyl)amino-cyclopentyl)-4-hydroxy-5-iodo-pyrrolopyrimidine] | 
8 | 2.5 nM | N[C@H]1C[C@@H](n2cc(I)c3c(Cl)ncnc32)[C@@H]2OC(=O)O[C@@H]21 [drawing 21 (R=H, R5=Cl), N7-((1'R,2'S,3'R,4'S)-2',3'--O-(2"-oxo-1",3"-dioxalyl)-4'-amino-cyclopentyl)-4-chloro-5-iodo-pyrrolopyrimidine] | 

Continued, compound first:

Row | SMILES | IC50 ([2]; Table 2, in vitro) | further results
9 | NC[C@H]1O[C@@H](n2cnc3c(N)ncnc32)[C@H](O)[C@@H]1O [5'-amino,5'-deoxyadenosine] |  | reported to inhibit adenosine kinase (in words) [1]: most potent
10 | C[C@H]1O[C@@H](n2cc(I)c3c(N)ncnc32)[C@H](O)[C@@H]1O [5'-deoxy-5-iodotubercidin] |  | reported to inhibit adenosine kinase (in words) [1]: most potent
11 | Nc1ncnc2c1c(I)cn2[C@@H]1O[C@H](CO)[C@@H](O)[C@H]1O [5-iodotubercidin] |  | reported to inhibit adenosine kinase (in words) [1]: most potent
12 | CC(C)(C)OC(=O)N(C(=O)OC(C)(C)C)[C@H]1C[C@@H](n2cc(I)c3c(Cl)ncnc32)[C@H](O)[C@@H]1O [drawing 14 (R4=Boc2N, R5=Cl, R6=I), N7-((1'R,2'S,3'R,4'S)-2',3'-dihydroxy-4'-(bis-t-butoxycarbonylamino)-cyclopentyl)-4-chloro-5-iodo pyrrolopyrimidine] |  | IC50 ([2]; Table 1, in vitro): > 1000 nM
13 | CN[C@H]1C[C@@H](n2cc(C)c3c(Cl)ncnc32)[C@H](O)[C@@H]1O [drawing 14 (R4=CH3NH, R5=Cl, R6=CH3), N7-((1'R,2'S,3'R,4'S)-2',3'-dihydroxy-4'-(methyl)amino-cyclopentyl)-4-chloro-5-methyl-pyrrolopyrimidine] |  | IC50 ([2]; Table 1, in vitro): 300 nM
14 | N[C@H]1C[C@@H](n2cc(I)c3c(Cl)ncnc32)[C@H](O)[C@@H]1O [drawing 14 (R4=H2N, R5=Cl, R6=I), N7-((1'R,2'S,3'R,4'S)-2',3'-dihydroxy-4'-amino-cyclopentyl)-4-chloro-5-iodo-pyrrolopyrimidine] |  | IC50 ([2]; Table 1, in vitro): 0.035 nM
15 | Nc1ncnc2c1c(I)cn2[C@@H]1C[C@H](N)[C@@H](O)[C@H]1O [drawing 14 (R4=H2N, R5=NH2, R6=I), N7-((1'R,2'S,3'R,4'S)-2',3'-dihydroxy-4'-amino-cyclopentyl)-4-amino-5-iodo-pyrrolopyrimidine] |  | IC50 ([2]; Table 1, in vitro): 0.08 nM
16 | CC(C)(C)OC(=O)N[C@H]1C[C@@H](n2cc(I)c3c(N)ncnc32)[C@H](O)[C@@H]1O [drawing 14 (R4=NHBoc, R5=NH2, R6=I), N7-((1'R,2'S,3'R,4'S)-2',3'-dihydroxy-4'-(t-butoxycarbonylamino)-cyclopentyl)-4-amino-5-iodo-pyrrolopyrimidine] |  | IC50 ([2]; Table 1, in vitro): 15 nM
17 | CC(=O)O[C@@H]1[C@H](OC(C)=O)[C@@H](OC(C)=O)C[C@H]1n1cc(-c2ccccc2)c2c(Cl)ncnc21 [drawing 16 (R5=Cl, R6=Ph), N7-((1'R,2'S,3'R,4'S)-2',3',4'-triacetoxycyclopentyl)-4-chloro-5-phenyl-pyrrolopyrimidine] | > 100000 nM | 
18 | CC(=O)O[C@@H]1[C@H](OC(C)=O)[C@@H](OC(C)=O)C[C@H]1n1cc(C#Cc2ccccc2)c2c(C#Cc3ccccc3)ncnc21 [drawing 16 (R5=PhCC, R6=PhCC), N7-((1'R,2'S,3'R,4'S)-2',3',4'-triacetoxycyclopentyl)-4,5-bis-phenylacetylenyl-pyrrolopyrimidine] | > 10000 nM | 
19 | CC(C)(C)OC(=O)N[C@H]1C[C@@H](n2cc(I)c3c(N)ncnc32)[C@H](O)[C@@H]1O [drawing 18 (R5=NH2, R=NHBoc), N7-((1'R,2'S,3'R,4'S)-2',3'-dihydroxy-4'-(t-butoxycarbonylamino)-cyclopentyl)-4-amino-5-iodo-pyrrolopyrimidine] | 150 nM | 
